Test results taken from the CheMixHub ionic liquid set.

Test: xn = mol fraction of the nth substance listed
Details: 101 kPa

CC[n+]1ccn(C)c1.O=C([O-])C(F)(F)F + O
Details | electrical conductivity, 298.15 K [S/m] | electrical conductivity, 313.15 K [S/m] | viscosity, 293.15 K [mPa·s] | viscosity, 298.15 K [mPa·s] | viscosity, 303.15 K [mPa·s] | viscosity, 313.15 K [mPa·s]
x1 = 0.001 | 0.3 | 0.41 | 1.01 | 0.9 | 0.8 | 0.66
x1 = 0.003 | 0.79 | 1.1 | 1.05 | 0.93 | 0.84 | 0.69
x1 = 0.004 | 1.2 | 1.6 | 1.1 | 0.98 | 0.87 | 0.72
x1 = 0.006 | 1.6 | 2.2 | 1.16 | 1.03 | 0.92 | 0.75
x1 = 0.009 | 2 | 2.5 | 1.24 | 1.1 | 0.98 | 0.81
x1 = 0.014 | 2.6 | 3.7 | 1.4 | 1.25 | 1.12 | 0.92
x1 = 0.02 | 3.1 | 4.4 | 1.57 | 1.4 | 1.2 | 0.97
x1 = 0.033 | 4 | 5.6 | 2.01 | 1.75 | 1.54 | 1.21
x1 = 0.051 | 4.4 | 6.6 | 2.53 | 2.2 | 1.92 | 1.5
x1 = 0.065 | 4.6 | 6.9 | 3 | 2.58 | 2.24 | 1.74
x1 = 0.108 | 4.5 | 6.9 | 4.39 | 3.76 | 3.25 | 2.49
x1 = 0.159 | 4.2 | 6.3 | 6.17 | 5.28 | 4.55 | 3.46
x1 = 0.243 | 3.5 | 5.3 | 8.98 | 7.65 | 6.56 | 4.96
x1 = 0.406 | 2.5 | 3.7 | – | – | – | –
x1 = 0.418 | – | – | 14.4 | 12.3 | 10.6 | 8
x1 = 0.502 | 2.2 | 3.4 | 17.3 | 14.8 | 12.6 | 9.5
x1 = 0.53 | 2 | 3.1 | 18.7 | 15.9 | 13.6 | 10.2
x1 = 0.759 | 1.5 | 2.3 | 26.8 | 22.7 | 19.3 | 14.3
x1 = 1 | 1 | 1.6 | 39.5 | 32.9 | 27.5 | 19.9
